Test results published in the NIST ThermoML archive (doi:10.1021/je034222z).
± gives the expanded uncertainty stated by the source.

In the case of `OCCC(F)(F)C(F)(F)C(F)(F)C(F)(F)C(F)(F)C(F)(F)C(F)(F)C(F)(F)F` [1-decanol, 3,3,4,4,5,5,6,6,7,7,8,8,9,9,-heptadecafluoro], the “vapor or sublimation pressure” value (294.1 K, Crystal, Transpiration method) is reported as 0.003 ± 0.001 kPa, the “vapor or sublimation pressure” value (357.15 K, Liquid) is reported as 0.708 ± 0.13 kPa and the “vapor or sublimation pressure” value (369.15 K, Liquid) is reported as 1.465 ± 0.21 kPa. The “vapor or sublimation pressure” value (380.15 K, Liquid) was 2.774 ± 0.25 kPa, the “vapor or sublimation pressure” value (392.15 K, Liquid) was 4.91 ± 0.32 kPa and the “vapor or sublimation pressure” value (397.15 K, Liquid) was 5.1 ± 1 kPa. For the same molecule, the “vapor or sublimation pressure” value (403.15 K, Liquid) was 8.284 ± 0.42 kPa, the “vapor or sublimation pressure” value (415.15 K, Liquid) was 13.8 ± 0.6 kPa and the “vapor or sublimation pressure” value (421.15 K, Liquid) was 15.27 ± 3.1 kPa. For the same molecule, the “vapor or sublimation pressure” value (428.15 K, Liquid) was 22.75 ± 0.89 kPa, the “vapor or sublimation pressure” value (430.15 K, Liquid) was 23.4 ± 4.7 kPa and the “vapor or sublimation pressure” value (439.15 K, Liquid) was 34.45 ± 1.3 kPa. For the same molecule, the “vapor or sublimation pressure” value (440.15 K, Liquid) was 32 ± 6.4 kPa, the “vapor or sublimation pressure” value (445.15 K, Liquid) was 35.67 ± 7.1 kPa and the “vapor or sublimation pressure” value (452.15 K, Liquid) was 51.67 ± 1.8 kPa. For the same molecule, the “vapor or sublimation pressure” value (463.15 K, Liquid) was 72.34 ± 2.5 kPa, the “vapor or sublimation pressure” value (468.15 K, Liquid) was 75.75 ± 15 kPa and the “vapor or sublimation pressure” value (474.15 K, Liquid) was 100.61 ± 3.4 kPa. For the same molecule, the “vapor or sublimation pressure” value (498.15 K, Liquid) was 162.1 ± 32 kPa and the Normal melting temperature (Crystal, visual observation) was 49.0 ± 2 °C.
